Experimental findings from patent US8916702B2 (priority 2012, dated 2014) are described below.

The first experiment concerns HCV pseudoparticles (genotype 1a HCV E1 and E2 envelope, H77C isolate). The experiment is described as follows: microbe, parasite or virus in culture. Format: cell-based. The following applies: Hepatitis C virus, Huh-7, 48 h, HCV pseudoparticles (genotype 1a, H77C) in Huh7 cells; average of duplicate; luciferase 2 days after infection.
`Cc1ccc(NC(=O)C(=O)N(CCO)CCCNC(=O)c2ccc(Nc3nc(NC4(c5ccc(Cl)cc5)CC4)nc(OCC(F)(F)F)n3)cc2)cc1O` [Compound 3506] gave an EC50 of 0.51 nM.
With `C=Cc1ccc(NC(=O)C(=O)NCC(C)(C)CNC(=O)c2ccc(Nc3nc(NC4(c5ccc(Cl)cc5)CC4)nc(OCC(F)(F)F)n3)cc2F)cc1` [Compound 3515], the EC50 is 0.017 nM.
Molecule `Cc1ccc(NC(=O)C(=O)NCC(C)(C)CNC(=O)c2ccc(Nc3nc(NC4(c5ccc(Cl)cc5)CC4)nc(OCC(F)(F)F)n3)cc2-n2nnnc2C)cc1` [Compound 3518] yielded an EC50 of 0.097 nM.
For `O=C(NCCC(NC(=O)c1ccc(Nc2nc(NC3(c4ccc(Cl)cc4)CC3)nc(OCC(F)(F)F)n2)cc1)C(=O)O)C(=O)Nc1ccc(CN2CCCCC2)cc1` (centres unmarked) [Compound 3534], the EC50 worked out at 7.54 nM.
Regarding `O=C(NCC[C@H](NC(=O)c1ccc(Nc2nc(NC3(c4ccc(Cl)cc4)CC3)nc(OCC(F)(F)F)n2)cc1)C(=O)O)C(=O)Nc1ccc(Cn2ccnc2)cc1` [Compound 3540], the response was half-maximal at 26.2 nM (EC50).
`O=C(NCC[C@H](NC(=O)c1ccc(Nc2nc(NC3(c4ccc(Cl)cc4)CC3)nc(OCC(F)(F)F)n2)cc1)C(=O)O)C(=O)Nc1ccc(-c2ncco2)cc1` [Compound 3547] showed an EC50 of 2.09 nM.
The molecule `Cc1ccc(NC(=O)C(=O)NCC(C)(C)CNC(=O)c2ccc(Nc3nc(NC4(c5ccc(Cl)cc5)CC4)nc(OCC(F)(F)F)n3)cc2F)cc1` [Compound 3554] showed an EC50 of 0.029 nM.

Staying with this experiment, now noted: Hepatitis C virus, Huh-7, read-out: Activity (EC50 class), HCV pseudoparticles (genotype 1a, H77C) in Huh7 cells; EC50 expressed as class A/B.
Consider `CC(C)CNC(=O)C(=O)N(CCO)CCCNC(=O)c1ccc(Nc2nc(NC3(c4ccc(Cl)cc4)CC3)nc(OCC(F)(F)F)n2)cc1` [Compound 3505], for which the EC50 was 0.01 to 10 nM.
Same read-out and setting: in the case of `Cc1ccc(NC(=O)C(=O)N(CCO)CCCNC(=O)c2ccc(Nc3nc(NC4(c5ccc(Cl)cc5)CC4)nc(OCC(F)(F)F)n3)cc2)cc1O` [Compound 3506] it was 0.01 to 10 nM; in that of `O=C(Nc1cc(F)cc(F)c1)C(=O)N(CCO)CCCNC(=O)c1ccc(Nc2nc(NC3(c4ccc(Cl)cc4)CC3)nc(OCC(F)(F)F)n2)cc1` [Compound 3507], 0.01 to 10 nM.
As for `O=C(Nc1ccccc1)C(=O)N(CCO)CCCNC(=O)c1ccc(Nc2nc(NC3(c4ccc(Cl)cc4)CC3)nc(OCC(F)(F)F)n2)cc1` [Compound 3508], the EC50 fell in the range of 0.01 to 10 nM.
Take `O=C(NCCCN(CCO)C(=O)C(=O)N1CCCCC1)c1ccc(Nc2nc(NC3(c4ccc(Cl)cc4)CC3)nc(OCC(F)(F)F)n2)cc1` [Compound 3509]: the EC50 is 0.01 to 10 nM.
The same measure, in the same setting: in the case of `O=C(NC1CCCCC1)C(=O)N(CCO)CCCNC(=O)c1ccc(Nc2nc(NC3(c4ccc(Cl)cc4)CC3)nc(OCC(F)(F)F)n2)cc1` [Compound 3510] it was 0.01 to 10 nM; in that of `CC(C)(CNC(=O)C(N)=O)CNC(=O)c1ccc(Nc2nc(NC3(c4ccc(Cl)cc4)CC3)nc(OCC(F)(F)F)n2)cc1-c1ccccc1` [Compound 3511], 0.01 to 10 nM; in that of `CC(C)(CNC(=O)C(=O)Nc1ccc(Cl)cc1)CNC(=O)c1ccc(Nc2nc(NC3(c4ccc(Cl)cc4)CC3)nc(OCC(F)(F)F)n2)cc1F` [Compound 3512], 0.01 to 10 nM.
Same read-out and setting: in the case of `CC(C)(CNC(=O)C(=O)Nc1ccc(Cl)c(F)c1)CNC(=O)c1ccc(Nc2nc(NC3(c4ccc(Cl)cc4)CC3)nc(OCC(F)(F)F)n2)cc1F` [Compound 3513] it was 0.01 to 10 nM.
On the same count and under the same terms, under `CC(C)(CNC(=O)C(=O)NCc1ccc(F)cc1)CNC(=O)c1ccc(Nc2nc(NC3(c4ccc(Cl)cc4)CC3)nc(OCC(F)(F)F)n2)cc1F` [Compound 3514] stands 0.01 to 10 nM; under `C=Cc1ccc(NC(=O)C(=O)NCC(C)(C)CNC(=O)c2ccc(Nc3nc(NC4(c5ccc(Cl)cc5)CC4)nc(OCC(F)(F)F)n3)cc2F)cc1` [Compound 3515], 0.01 to 10 nM; under `CC(C)(CNC(=O)C(=O)Nc1ccc(C#N)cc1)CNC(=O)c1ccc(Nc2nc(NC3(c4ccc(Cl)cc4)CC3)nc(OCC(F)(F)F)n2)cc1F` [Compound 3516], 0.01 to 10 nM.
As to `Cc1nnnn1-c1cc(Nc2nc(NC3(c4ccc(Cl)cc4)CC3)nc(OCC(F)(F)F)n2)ccc1C(=O)NCC(C)(C)CNC(=O)C(=O)Nc1cccc(F)c1` [Compound 3517], the EC50 is 0.01 to 10 nM.
Consider `Cc1ccc(NC(=O)C(=O)NCC(C)(C)CNC(=O)c2ccc(Nc3nc(NC4(c5ccc(Cl)cc5)CC4)nc(OCC(F)(F)F)n3)cc2-n2nnnc2C)cc1` [Compound 3518], for which the EC50 was 0.01 to 10 nM.
Take `Cc1nnnn1-c1cc(Nc2nc(NC3(c4ccc(Cl)cc4)CC3)nc(OCC(F)(F)F)n2)ccc1C(=O)NCC(C)(C)CNC(=O)C(N)=O` [Compound 3519]: the EC50 was in the range of 0.01 to 10 nM.
In the case of `O=C(NCCC(NC(=O)c1ccc(Nc2nc(NC3(c4ccc(Cl)cc4)CC3)nc(OCC(F)(F)F)n2)cc1)C(=O)O)C(=O)Nc1ccc(Cn2cncn2)cc1` (centres unmarked) [Compound 3520], the EC50 was 0.01 to 10 nM.
As for `O=C(NCCC(NC(=O)c1ccc(Nc2nc(NC3(c4ccc(Cl)cc4)CC3)nc(OCC(F)(F)F)n2)cc1)C(=O)O)C(=O)Nc1ccc(-n2ccnc2)cc1` (centres unmarked) [Compound 3521], the EC50 lay in the range of 0.01 to 10 nM.
As to `O=C(NCCC(NC(=O)c1ccc(Nc2nc(NC3(c4ccc(Cl)cc4)CC3)nc(OCC(F)(F)F)n2)cc1)C(=O)O)C(=O)Nc1ccc(Oc2ccc(F)cc2)cc1` (centres unmarked) [Compound 3522], the EC50 was in the range of 10 to 1000 nM.
Take `COc1cc(OC)nc(-c2ccc(NC(=O)C(=O)NCCC(NC(=O)c3ccc(Nc4nc(NC5(c6ccc(Cl)cc6)CC5)nc(OCC(F)(F)F)n4)cc3)C(=O)O)cc2)n1` (centres unmarked) [Compound 3523]: the EC50 was 0.01 to 10 nM.
For `CC(=O)N1CCN(c2ccc(NC(=O)C(=O)NCCC(NC(=O)c3ccc(Nc4nc(NC5(c6ccc(Cl)cc6)CC5)nc(OCC(F)(F)F)n4)cc3)C(=O)O)cc2)CC1` (centres unmarked) [Compound 3524], the EC50 fell in the range of 0.01 to 10 nM.
Take `Cc1ccccc1-c1ccc(NC(=O)C(=O)NCCC(NC(=O)c2ccc(Nc3nc(NC4(c5ccc(Cl)cc5)CC4)nc(OCC(F)(F)F)n3)cc2)C(=O)O)cc1` (centres unmarked) [Compound 3525]: the concentration giving a half-maximal response (EC50) lay in the range of 10 to 1000 nM.
With `Cc1ccc(-c2ccc(NC(=O)C(=O)NCCC(NC(=O)c3ccc(Nc4nc(NC5(c6ccc(Cl)cc6)CC5)nc(OCC(F)(F)F)n4)cc3)C(=O)O)cc2)cc1` (centres unmarked) [Compound 3526], the EC50 fell in the range of 0.01 to 10 nM.
The same measure, in the same setting: under `Cc1nc(-c2ccc(NC(=O)C(=O)NCCC(NC(=O)c3ccc(Nc4nc(NC5(c6ccc(Cl)cc6)CC5)nc(OCC(F)(F)F)n4)cc3)C(=O)O)cc2)cs1` (centres unmarked) [Compound 3528] stands 0.01 to 10 nM.
The same measure, in the same setting: under `CCOCCOc1ccc(NC(=O)C(=O)NCCC(NC(=O)c2ccc(Nc3nc(NC4(c5ccc(Cl)cc5)CC4)nc(OCC(F)(F)F)n3)cc2)C(=O)O)cc1` (centres unmarked) [Compound 3530] stands 0.01 to 10 nM; under `O=C(NCCC(NC(=O)c1ccc(Nc2nc(NC3(c4ccc(Cl)cc4)CC3)nc(OCC(F)(F)F)n2)cc1)C(=O)O)C(=O)Nc1ccc(-c2cc[nH]n2)cc1` (centres unmarked) [Compound 3531], 0.01 to 10 nM; under `O=C(NCCC(NC(=O)c1ccc(Nc2nc(NC3(c4ccc(Cl)cc4)CC3)nc(OCC(F)(F)F)n2)cc1)C(=O)O)C(=O)Nc1ccc(Cn2cccn2)cc1` (centres unmarked) [Compound 3533], 0.01 to 10 nM.
For the molecule `O=C(NCCC(NC(=O)c1ccc(Nc2nc(NC3(c4ccc(Cl)cc4)CC3)nc(OCC(F)(F)F)n2)cc1)C(=O)O)C(=O)Nc1ccc(CN2CCCCC2)cc1` (centres unmarked) [Compound 3534], the EC50 fell in the range of 0.01 to 10 nM.
On the same count and under the same terms, in the case of `NC(=O)NCc1ccc(NC(=O)C(=O)NCCC(NC(=O)c2ccc(Nc3nc(NC4(c5ccc(Cl)cc5)CC4)nc(OCC(F)(F)F)n3)cc2)C(=O)O)cc1` (centres unmarked) [Compound 3535] it was 0.01 to 10 nM; in that of `O=C(NCCC(NC(=O)c1ccc(Nc2nc(NC3(c4ccc(Cl)cc4)CC3)nc(OCC(F)(F)F)n2)cc1)C(=O)O)C(=O)Nc1ccc(OCCc2ncccn2)cc1` (centres unmarked) [Compound 3536], 0.01 to 10 nM; in that of `Cn1cnnc1-c1ccc(NC(=O)C(=O)NCCC(NC(=O)c2ccc(Nc3nc(NC4(c5ccc(Cl)cc5)CC4)nc(OCC(F)(F)F)n3)cc2)C(=O)O)cc1` (centres unmarked) [Compound 3538], 10 to 1000 nM.
Same read-out and setting: under `O=C(NCC[C@H](NC(=O)c1ccc(Nc2nc(NC3(c4ccc(Cl)cc4)CC3)nc(OCC(F)(F)F)n2)cc1)C(=O)O)C(=O)Nc1ccc(C2=CCC(N3CCOCC3)=N2)cc1` [Compound 3539] stands 10 to 1000 nM; under `O=C(NCC[C@H](NC(=O)c1ccc(Nc2nc(NC3(c4ccc(Cl)cc4)CC3)nc(OCC(F)(F)F)n2)cc1)C(=O)O)C(=O)Nc1ccc(Cn2ccnc2)cc1` [Compound 3540], 10 to 1000 nM; under `Cc1nccn1-c1ccc(NC(=O)C(=O)NCC[C@H](NC(=O)c2ccc(Nc3nc(NC4(c5ccc(Cl)cc5)CC4)nc(OCC(F)(F)F)n3)cc2)C(=O)O)cc1` [Compound 3541], 10 to 1000 nM.
On the same count and under the same terms, in the case of `Cc1nccn1Cc1ccc(NC(=O)C(=O)NCC[C@H](NC(=O)c2ccc(Nc3nc(NC4(c5ccc(Cl)cc5)CC4)nc(OCC(F)(F)F)n3)cc2)C(=O)O)cc1` [Compound 3542] it was 10 to 1000 nM; in that of `COCc1ccc(NC(=O)C(=O)NCC[C@H](NC(=O)c2ccc(Nc3nc(NC4(c5ccc(Cl)cc5)CC4)nc(OCC(F)(F)F)n3)cc2)C(=O)O)cc1` [Compound 3543], 0.01 to 10 nM.
Turning to `O=C(NCC[C@H](NC(=O)c1ccc(Nc2nc(NC3(c4ccc(Cl)cc4)CC3)nc(OCC(F)(F)F)n2)cc1)C(=O)O)C(=O)Nc1ccc(Oc2ccncc2)cc1` [Compound 3544], the EC50 was 10 to 1000 nM.
Turning to `O=C(NCC[C@H](NC(=O)c1ccc(Nc2nc(NC3(c4ccc(Cl)cc4)CC3)nc(OCC(F)(F)F)n2)cc1)C(=O)O)C(=O)Nc1ccc(Oc2cccnc2)cc1` [Compound 3545], the EC50 lay in the range of 0.01 to 10 nM.
Take `O=C(NCC[C@H](NC(=O)c1ccc(Nc2nc(NC3(c4ccc(Cl)cc4)CC3)nc(OCC(F)(F)F)n2)cc1)C(=O)O)C(=O)Nc1ccc(OC2CCOCC2)cc1` [Compound 3546]: the EC50 is 0.01 to 10 nM.
Still for that read-out and setting: under `O=C(NCC[C@H](NC(=O)c1ccc(Nc2nc(NC3(c4ccc(Cl)cc4)CC3)nc(OCC(F)(F)F)n2)cc1)C(=O)O)C(=O)Nc1ccc(-c2ncco2)cc1` [Compound 3547] stands 0.01 to 10 nM; under `CCOc1ccc(NC(=O)C(=O)NCC[C@H](NC(=O)c2ccc(Nc3nc(NC4(c5ccc(Cl)cc5)CC4)nc(OCC(F)(F)F)n3)cc2)C(=O)O)cc1` [Compound 3548], 0.01 to 10 nM.
With `CC(C)(C)c1ccc(NC(=O)C(=O)NCC[C@H](NC(=O)c2ccc(Nc3nc(NC4(c5ccc(Cl)cc5)CC4)nc(OCC(F)(F)F)n3)cc2)C(=O)O)cc1` [Compound 3549], the EC50 is 0.01 to 10 nM.
Regarding `CC(C)c1ccc(NC(=O)C(=O)NCC[C@H](NC(=O)c2ccc(Nc3nc(NC4(c5ccc(Cl)cc5)CC4)nc(OCC(F)(F)F)n3)cc2)C(=O)O)cc1` [Compound 3550], the EC50 lay within 0.01 to 10 nM.
As to `CCc1ccc(NC(=O)C(=O)NCC[C@H](NC(=O)c2ccc(Nc3nc(NC4(c5ccc(Cl)cc5)CC4)nc(OCC(F)(F)F)n3)cc2)C(=O)O)cc1` [Compound 3551], the EC50 was in the range of 0.01 to 10 nM.
For `Cc1nnnn1-c1cc(Nc2nc(NC3(c4ccc(Cl)cc4)CC3)nc(OCC(F)(F)F)n2)ccc1C(=O)NCC(C)(C)CNC(=O)C(=O)Nc1ccc(F)cc1` [Compound 3552], the EC50 lay in the range of 0.01 to 10 nM.
Take `Cc1ccc(NC(=O)C(=O)NCC(C)(C)CNC(=O)c2ccc(Nc3nc(NC4(c5ccc(Cl)cc5)CC4)nc(OCC(F)(F)F)n3)cc2F)cc1` [Compound 3554]: the EC50 is 0.01 to 10 nM.
With `CC(C)(CNC(=O)C(=O)Nc1ccc(F)cc1F)CNC(=O)c1ccc(Nc2nc(NC3(c4ccc(Cl)cc4)CC3)nc(OCC(F)(F)F)n2)cc1F` [Compound 3555], the EC50 was in the range of 0.01 to 10 nM.
